Like-named read-outs stand apart in the source and are kept apart here.
Tests used:
HIV-1 (IIIB) = experiment: Antiviral assay in MT-4 cells (HIV MT-4 antiviral assay); format: cell-based; details: HIV-1 (IIIB) in MT-4 cells, 5 days incubation
Method: Compounds were tested in a high-throughput 384-well assay format for their ability to inhibit the replication of HIV-1 (IIIB) in MT-4 cells. Compounds were serially diluted (1:3) in DMSO on 384-well polypropylene plates and further diluted 200-fold into complete RPMI media (10% FBS, 1% P/S) using the Biotek Micro Flow and Labcyte ECHO acoustic dispenser. Each plate contained up to 8 test compounds, with negative (No Drug Control) and 5 μM AZT positive controls. MT-4 cells were pre-infected with 10 μL of either RPMI (mock-infected) or a fresh 1:250 dilution of HIV-1 IIIB concentrated virus stock. Infected and uninfected MT-4 cells were further diluted in complete RPMI media and added to each plate using a Micro Flow dispenser. After 5 days incubation in a humidified and temperature controlled incubator (37° C.), Cell Titer Glo (Promega) was added to the assay plates and chemiluminescence read using an Envision plate-reader.

[1] = Cytotoxicity assay in MT-4 cells; format: cell-based, human; details: human, uninfected MT-4 cells, 5 days incubation; read-out: CC50
Method: Each plate contained up to 8 test compounds, with negative (No Drug Control) and 5 μM AZT positive controls. MT-4 cells were pre-infected with 10 μL of either RPMI (mock-infected) or a fresh 1:250 dilution of HIV-1 IIIB concentrated virus stock. Infected and uninfected MT-4 cells were further diluted in complete RPMI media and added to each plate using a Micro Flow dispenser. After 5 days incubation in a humidified and temperature controlled incubator (37° C.), Cell Titer Glo (Promega) was added to the assay plates and chemiluminescence read using an Envision plate-reader. […] Assays were performed as above except uninfected MT-4 cells were added to each well containing test compound. In addition, 10 μM puromycin was added to the last column of each assay plate to assess a base level of cytotoxicity.

[2] = Human immunodeficiency virus 1, IIIB, MT4, 120 h, read-out: EC50

Row | SMILES | EC50 (HIV-1 (IIIB); [2]) | CC50 at 5 days [1] | EC50 (HIV-1 (IIIB)) | EC50 (HIV-1 (IIIB); Human immunodeficiency virus 1, IIIB, MT4, 120 h)
1 | O=C(NCc1c(F)cc(F)cc1F)c1cn2c(c(O)c1=O)C(=O)N1C[C@H]2CCc2c(Cl)cccc21 [Example 45-2, (12R)-1-chloro-7-hydroxy-6,8-dioxo-N-(2,4,6-trifluorobenzyl)-6,8,13,14-tetrahydro-12H-5,12-methanobenzo[e]pyrido[1,2-a][1,4]diazonine-9-carboxamide] | 30.3 nM | 8890 nM |  | 
2 | CC12CCCCN(C1)C(=O)c1c(O)c(=O)c(C(=O)NCc3c(F)cc(F)cc3F)cn12 (centres unmarked) [Example 18, 12-hydroxy-7-methyl-1,11-dioxo-N-(2,4,6-trifluorobenzyl)-1,4,5,6,7,11-hexahydro-3H-2,7-methanopyrido[1,2-a][1,4]diazonine-10-carboxamide] | 1.4 nM | 29400 nM |  | 
3 | O=C(NCc1c(F)cc(F)cc1F)c1cn2c(c(O)c1=O)C(=O)N1CC2CCc2sccc21 (stereo in doubt) [Example 104-2, (11S)-6-hydroxy-5,7-dioxo-N-(2,4,6-trifluorobenzyl)-5,7,12,13-tetrahydro-11H-4,11-methanopyrido[1,2-a]thieno[3,2-e][1,4]diazonine-8-carboxamide] | 35.3 nM | 14000 nM |  | 
4 | O=C(NCc1ccc(F)c(Cl)c1F)c1cn2c(c(O)c1=O)C(=O)N1C[C@H]2CCCc2ccccc21 [Example 97-2, (6R)—N-(3-chloro-2,4-difluorobenzyl)-1-hydroxy-2,15-dioxo-2,6,7,8,9,15-hexahydro-6,14-methanobenzo[e]pyrido[1,2-a][1,4]diazecine-3-carboxamide] | 6.05 nM | 16300 nM |  | 
5 | O=C(NCc1c(F)cc(F)cc1F)c1cn2c(c(O)c1=O)C(=O)N1CCCC2CC1 (single isomer, unassigned) [Example 24-1, 11-hydroxy-1,10-dioxo-N-(2,4,6-trifluorobenzyl)-1,3,4,5,6,10-hexahydro-2,6-ethanopyrido[1,2-a][1,4]diazocine-9-carboxamide] | 10.3 nM | 13600 nM |  | 
6 | Cn1ncc2c1CC[C@H]1CN2C(=O)c2c(O)c(=O)c(C(=O)NCc3c(F)cc(F)cc3F)cn21 [Example 85-2, (11S)-6-hydroxy-1-methyl-5,7-dioxo-N-(2,4,6-trifluorobenzyl)-1,5,7,11,12,13-hexahydro-4,11-methanopyrazolo[4,3-e]pyrido[1,2-a][1,4]diazonine-8-carboxamide] | 5.85 nM | > 49300 nM |  | 
7 | CC1(F)CCCN2CC1n1cc(C(=O)NCc3ccc(F)cc3F)c(=O)c(O)c1C2=O (single isomer, unassigned) [Example 17-1a, N-(2,4-difluorobenzyl)-6-fluoro-12-hydroxy-6-methyl-1,11-dioxo-1,4,5,6,7,11-hexahydro-3H-2,7-methanopyrido[1,2-a][1,4]diazonine-10-carboxamide] | 1.5 nM | 12900 nM |  | 
8 | O=C(NCc1c(F)cc(F)cc1F)c1cn2c(c(O)c1=O)C(=O)N1CCc3cc(Cl)ccc3[C@H]2C1 [Example 136-1, (13S)-10-chloro-4-hydroxy-3,5-dioxo-N-(2,4,6-trifluorobenzyl)-3,5,8,13-tetrahydro-7H-6,13-methanobenzo[g]pyrido[1,2-a][1,4]diazonine-2-carboxamide] | 39.9 nM | 12400 nM |  | 
9 | O=C(NCc1ccc(F)cc1F)c1cn2c(c(O)c1=O)C(=O)N1CC2CCc2cc(F)ccc21 (single isomer, unassigned) [Example 55-1] |  | 13000 nM | > 89.4 nM | 
10 | COC1CCCN2C[C@H]1n1cc(C(=O)NCc3c(F)cc(F)cc3F)c(=O)c(O)c1C2=O (stereo partly drawn) [Example 99-2, (7R)-12-hydroxy-6-methoxy-1,11-dioxo-N-(2,4,6-trifluorobenzyl)-1,4,5,6,7,11-hexahydro-3H-2,7-methanopyrido[1,2-a][1,4]diazonine-10-carboxamide] | 3.02 nM | > 23400 nM |  | 
11 | CC1=CC[C@H]2CN(C1)C(=O)c1c(O)c(=O)c(C(=O)NCc3c(F)cc(F)cc3F)cn12 [Example 132-3, (7S)-12-hydroxy-4-methyl-1,11-dioxo-N-(2,4,6-trifluorobenzyl)-1,6,7,11-tetrahydro-3H-2,7-methanopyrido[1,2-a][1,4]diazonine-10-carboxamide] | 2.14 nM | 24100 nM |  | 
12 | O=C(NCc1cccc(Cl)c1F)c1cn2c(c(O)c1=O)C(=O)N1CCCC[C@H]2C1 [Example 126, (7S)—N-(3-chloro-2-fluorobenzyl)-12-hydroxy-1,11-dioxo-1,4,5,6,7,11-hexahydro-3H-2,7-methanopyrido[1,2-a][1,4]diazonine-10-carboxamide] |  | 15400 nM |  | 4.75 nM

Second part, led by results:

Row | EC50 (HIV-1 (IIIB); [2]) | SMILES | CC50 at 5 days [1] | EC50 (HIV-1 (IIIB)) | EC50 (HIV-1 (IIIB); Human immunodeficiency virus 1, IIIB, MT4, 120 h)
13 | 7.2 nM | O=C(NCc1c(F)cc(F)cc1F)c1cn2c(c(O)c1=O)C(=O)N1CCCC(O)C2C1 (centres unmarked) [Example 11, 6,12-dihydroxy-1,11-dioxo-N-(2,4,6-trifluorobenzyl)-1,4,5,6,7,11-hexahydro-3H-2,7-methanopyrido[1,2-a][1,4]diazonine-10-carboxamide] | > 50000 nM |  | 
14 | 21.4 nM | O=C(NCc1ccc(F)cc1F)c1cn2c(c(O)c1=O)C(=O)N1C[C@H]2CCc2ccccc21 (single isomer, unassigned) [Example 37-1] | 10500 nM |  | 
15 | 3.9 nM | O=C(NCc1ccc(F)cc1F)c1cn2c(c(O)c1=O)C(=O)N1CCCOCC2C1 (racemic) [rac-1, N-(2,4-Difluorobenzyl)-13-hydroxy-1,12-dioxo-1,4,5,7,8,12-hexahydro-3H-2,8-methanopyrido[1,2-d][1,4,7]oxadiazecine-11-carboxamide] | > 47900 nM |  | 
16 | 12.1 nM | C[C@@]1(O)CCN2C[C@H](C1)n1cc(C(=O)NCc3c(F)cc(F)cc3F)c(=O)c(O)c1C2=O [Example 107-2, (5R,7S)-5,12-dihydroxy-5-methyl-1,11-dioxo-N-(2,4,6-trifluorobenzyl)-1,4,5,6,7,11-hexahydro-3H-2,7-methanopyrido[1,2-a][1,4]diazonine-10-carboxamide] | > 50000 nM |  | 
17 | 1.2 nM | O=C(NCc1ccc(F)cc1F)c1cn2c(c(O)c1=O)C(=O)N1C[C@@H]2CCc2ccccc21 (single isomer, unassigned) [Example 37-2] | 12900 nM |  | 
18 | 3.93 nM | O=C(NCc1c(F)cc(F)cc1F)c1cn2c(c(O)c1=O)C(=O)N1Cc3ccc(Cl)cc3C[C@@H]2C1 (single isomer, unassigned) [Example 127-2] | 13700 nM |  | 
19 | 3.23 nM | O=C(NCc1ccccc1)c1cn2c(c(O)c1=O)C(=O)N1CCCC[C@H]2C1 [Example 167, (7S)—N-benzyl-12-hydroxy-1,11-dioxo-1,4,5,6,7,11-hexahydro-3H-2,7-methanopyrido[1,2-a][1,4]diazonine-10-carboxamide] | 18700 nM |  | 
20 | 6.9 nM | O=C(NCc1ccc(F)cc1F)c1cn2c(c(O)c1=O)C(=O)N1CCNCC2C1 (centres unmarked) [Example 30, N-(2,4-difluorobenzyl)-12-hydroxy-1,11-dioxo-1,4,5,6,7,11-hexahydro-3H-2,7-methanopyrido[1,2-a][1,4,7]triazonine-10-carboxamide] | 1660 nM |  | 
21 | 3.36 nM | Cc1noc2c1CN1C[C@H](C2)n2cc(C(=O)NCc3c(F)cc(F)cc3F)c(=O)c(O)c2C1=O (single isomer, unassigned) [Example 135-1] | > 50000 nM |  | 
22 | 15.1 nM | C[C@]1(O)CCN2C[C@H](C1)n1cc(C(=O)NCc3c(F)cc(F)cc3F)c(=O)c(O)c1C2=O [Example 107-1, (5S,7S)-5,12-dihydroxy-5-methyl-1,11-dioxo-N-(2,4,6-trifluorobenzyl)-1,4,5,6,7,11-hexahydro-3H-2,7-methanopyrido[1,2-a][1,4]diazonine-10-carboxamide] | > 50000 nM |  | 

— patent publication US12227520B2 (priority 2019, dated 2025)
